Reference: patent US8609608B2, “Antimicrobial peptides” (C3 Jian, Inc., priority 2007, dated 2013)
Where no end group is shown, it is not given here.

Columns and labels:
[1] = system: clinical isolates of S. mutans; assay type: cell-based, Streptococcus mutans; conditions: clinical isolates of
Procedure: S. mutans clinical isolates UA140 (32), UA159 (1), T8 (33), ATCC 25175, GS5 (Kuramitsu and Ingersoll (1977) Infect Immun., 17: 330-337), and all gram-positive strains listed below (see Table 9) were grown under anaerobic conditions in brain heart infusion or Todd-Hewitt (TH) broth (Difco) overnight at 37° C. prior to use (Eckert et al. (2006) Antimicrob. Agents Chemother. 50: 3651-3657). Veillonella atypica PK1910 was grown in Veillonella medium (Egland et al. (2004) Proc. Natl. Acad. Sci., USA, 101: 16917-16922). All strains were grown in an anaerobic atmosphere of 80% N2, 10% CO2, and 10% H2.
Antibacterial growth inhibition assays were performed using sterile 96-well plates in a final volume of 100 μl, TH or Veillonella medium as described previously (Qi et al. (2005) FEMS Microbial Lett. 251: 321-326). Briefly, bacterial cells were grown overnight to an optical density at 600 nm of 0.75 to 0.8 (corresponding to 1×10^8 CFU/ml) and then diluted to 1×10^5 CFU/ml in broth and aliquoted onto plates. An appropriate volume of peptide stock solution (5 to 20 mg/ml, in water or methanol, depending on solubility) was then added to the first column of the plate to give 500 μg/ml or 512 μg/ml, followed by serial 1:2 dilutions across the plate to give wells containing peptides ranging from 500 to 1.95 μg/ml or 512 to 2 μg/ml. Methanol alone was also added to control for the effects of the solvent. The plates were then incubated at 37° C. under anaerobic conditions for 16 to 20 h without shaking, and the MIC was determined as the concentration of peptide present in the last clear well after visual inspection. Up to 5% (vol/vol) methanol was found not to be antimicrobial (data not shown). MICs were determined in triplicate for all bacteria.

P. aeruginosa = assay: MIC against P. aeruginosa; assay type: cell-based, Pseudomonas aeruginosa

| Substance | MIC L. casei (L. casei) [µg/mL] | MIC S. mutans [1] [µg/mL] | MIC P. aeruginosa (P. aeruginosa) [µg/mL] | MIC S. aureus (S. aureus) [µg/mL] | MIC E. faecalis (E. faecalis) [µg/mL] |
| --- | --- | --- | --- | --- | --- |
| FVFRHKWVWKHRFLF [Peptide S3L8-1, FVFRHKWVWKHRFLF] | 62.5 | 16 | >125 | >125 | 32 |
| VIRHVWVRKLF [Peptide S3L8-27, VIRHVWVRKLF] | >62.5 | 60 | >125 | >125 | >125 |
| LRLFLRWLF [Peptide S3L8-39, LRLFLRWLF] | 16 | 16 | >125 | 16 | 32 |
| VLKHVIAHKRLF [Peptide S3L8-25, VLKHVIAHKRLF] | >62.5 | >125 | >125 | >125 | >125 |
| VFKRVLIHKLIF [Peptide S3L8-23, VFKRVLIHKLIF] | 62.5 | >125 | >125 | >125 | 32 |
| FKHKFKHKFIF [Peptide S3L8-30, FKHKFKHKFIF] | >62.5 | >125 | >125 | >125 | >125 |
| FKFKHKLIF [Peptide S3L8-36, FKFKHKLIF] | >62.5 | >125 | >125 | >125 | >125 |
| FKFLFKFLF [Peptide S3L8-38, FKFLFKFLF] | 32 | >125 | >125 | >125 | >125 |
| FLHKHLFKHKLF [Peptide S3L8-18, FLHKHLFKHKLF] | >62.5 | >125 | >125 | >125 | >125 |
| LILKFLFKFVF [Peptide S3L8-32, LILKFLFKFVF] | 16 | 31 | >125 | 16 | 16 |
| LKHKLKHKF [Peptide S3L8-35, LKHKLKHKF] | >62.5 | >125 | >125 | >125 | >125 |
| LRHRLRHRLIF [Peptide S3L8-31, LRHRLRHRLIF] | >62.5 | >125 | >125 | >125 | 125 |
| FKFLFKHKF [Peptide S3L8-40, FKFLFKHKF] | 62.5 | 30 | >125 | >125 | 62.5 |
| FRHRFRHRF [Peptide S3L8-34, FRHRFRHRF] | >62.5 | >125 | >125 | >125 | >125 |
| FIRKFLFKHLF [Peptide S3L8-26, FIRKFLFKHLF] | 16 | 16 | >125 | 62.5 | 24 |
| FLFKHLFLHRIFF [Peptide S3L8-16, FLFKHLFLHRIFF] | >62.5 | >125 | >125 | >125 | >125 |
| LVHKLILRHLLF [Peptide S3L8-22, LVHKLILRHLLF] | >62.5 | >125 | >125 | >125 | >125 |

| Substance | MIC L. casei (L. casei) [µg/mL] | MIC S. mutans [1] [µg/mL] | MIC P. aeruginosa (P. aeruginosa) [µg/mL] | MIC S. aureus (S. aureus) [µg/mL] | MIC E. faecalis (E. faecalis) [µg/mL] |
| --- | --- | --- | --- | --- | --- |
| FKAHIRFKLRVKFHF [Peptide S3L8-10, FKAHIRFKLRVKFHF] | 8 |  | >125 | >125 | >125 |
| VLRHLFRHRIVF [Peptide S3L8-21, VLRHLFRHRIVF] | >62.5 | 60 | >125 | >125 | 93.5 |
| WRIHLRARLHVKFRF [Peptide S3L8-4, WRIHLRARLHVKFRF] | 8 |  | >125 | 62.5 | 8 |
| LRLFLRHRF [Peptide S3L8-41, LRLFLRHRF] | >62.5 | 16 | >125 | >125 | 62.5 |
| FKFLFKF [Peptide S3L8-42, FKFLFKF] | >62.5 | >125 | >125 | >125 | >125 |
| LRIHARFKVHIRLKF [Peptide S3L8-5, LRIHARFKVHIRLKF] | 8 | 60 | >125 | >125 | 12 |
| WIWKHKFLHRHFLF [Peptide S3L8-12, WIWKHKFLHRHFLF] | >62.5 | 125 | >125 | >125 | 125 |
| VLIRILVRVIF [Peptide S3L8-33, VLIRILVRVIF] | 16 | >125 | >125 | 125 | 16 |
| LRLRHRVLF [Peptide S3L8-37, LRLRHRVLF] | >62.5 | >125 | >125 | >125 | >125 |
| LKAKIKFKVKLKIKF [Peptide S3L8-11, LKAKIKFKVKLKIKF] | 3 | 8 | 32 to 62.5 | 125 | 39 |
| LRLFLRF [Peptide S3L8-43, LRLFLRF] | >62.5 | >125 | >125 | >125 | >125 |
| VFRHRFIHRHVF [Peptide S3L8-19, VFRHRFIHRHVF] | >62.5 | >125 | >125 | >125 | >125 |
| FHVKIHFRLHVKFHF [Peptide S3L8-7, FHVKIHFRLHVKFHF] | 16 |  | >125 | >125 | >125 |
| VFIVWVHKHVLF [Peptide S3L8-2, VFIVWVHKHVLF] | >62.5 |  | >125 | >125 | >125 |
| FLHKHVLRHRIVF [Peptide S3L8-14, FLHKHVLRHRIVF] | >62.5 |  | >125 | >125 | >125 |
| FLFRHRFRHRLVF [Peptide S3L8-28, FLFRHRFRHRLVF] | >62.5 | 60 | >125 | >125 | 62.5 |
| WRWRARWRWRLRWRF [Peptide S3L8-3, WRWRARWRWRLRWRF] | 16 | 4 | >125 | 16 | 8 |
